Laboratory results as given in patent publication US5191079A, “Quinolinecarboxylic acid derivatives” (priority 1990, dated 1993).
Converted amounts (≈) assume the structure as drawn. Structures can show the parent of a compound that is named as a salt. Where two headings read alike, the source gives them in different places.

Legend:
[1] = system: Staphylococcus epidermidis IAM 1296; assay: MIC, Experiment 1; type: cell-based; conditions: IAM1296, S. epidermidis IAM 1296, Gram +, read-out: Min. inhib. concentr. (MIC)
Experimental: The compounds of the present invention ([…] and Q) were each dissolved in dimethylsulfoxide to prepare a solution of 5000 μg/ml in concentration. The compounds of the present invention (I, J and K) and the known compound (Y) were each dissolved in sterilized distilled water to prepare a solution of 5000 μg/ml in concentration. […] The test was carried out by a method as appointed by Japan Society of Chemotherapy [cf. Chemotherapy, 29, 76-79 (1981), TOKYO]. As to Streptococcus pneumoniae and Streptococcus pyogenes, Brain heart infusion broth (manufactured by DIFCO) was used as the medium for the preculture thereof, and a heart infusion agar medium containing 5% defibrinated horse blood (manufactured by Nissui Seiyaku K. K., Japan) was used as the medium for the measurement of minimum inhibitory concentration (MIC). As to other microorganisms, a sensitivity test broth (manufactured by Nissui Seiyaku K. K.) was used as the medium for the preculture thereof, and a sensitivity test agar medium (manufactured by Nissui Seiyaku K. K.) was used as the medium for the measurement of MIC.

[2] = system: clinically isolated Enterococcus faecalis; assay: In vitro antibacterial activity against clinical isolates, Experiment 2; type: cell-based
Outline: (§1)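 Isolates obtained from Nov. 1988 to Jun. 1989 were first precultured in sensitivity test broth. Their minimum inhibitory concentrations were then measured on sensitivity test agar against compounds made up as 1000 μg/ml stock solutions in sterilized water.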

[3] = system: clinically isolated Enterococcus faecium; assay: as above; type: cell-based
Outline: as §1

[4] = system: clinically isolated Staphylococcus aureus; assay: as above; type: cell-based; conditions: for MIC50: 50% of strains, read-out: MIC50
Outline: as §1

[5] = system: Staphylococcus aureus IID 803; assay: Effect on treatment of general infectious disease (systemic infection in mice), Experiment 3; type: in vivo, Staphylococcus aureus; ddY male mice
Experimental: Staphylococcus aureus IID 803
The test microorganism was subjected to standing culture in Brain heart infusion broth (manufactured by DIFCO) at 37° C. for 16 to 18 hours. The culture was then diluted with PBS (Dulbecco's phosphate buffered saline) to adjust the concentration of bacteria to 4×10^7 -8×10^7 CFU/ml. The mixture was mixed with an equivalent amount of 10% (w/v) Mucin (BACTO MUCIN BACTERIOLOGICAL, manufactured by Difco Co.) to prepare a bacterial suspension. The thus prepared bacterial suspension (0.5 ml each) was intraperitoneally inoculated to ddY male mice (5 weeks age, weighing 24-27 g, 5 mice in each group), to infect the animals, by which systemic infectious model was prepared.
The mice were daily observed for one week, and from the survival number of mice after one week, the 50% effective dose (ED50) was calculated by Weil method. This test was repeated several times and the average of ED50 was calculated.

[6] = 25 clinical strains E. faecalis
[7] = 25 clinical strains E. faecalis, 50% of strains, read-out: MIC50
[8] = 25 clinical strains E. faecalis, 90% of strains, read-out: MIC90
[9] = 25 clinical strains E. faecium, 90% of strains, read-out: MIC90
[10] = 25 clinical strains S. aureus incl. 16 methicillin resistant
[11] = 25 clinical strains S. aureus incl. 16 methicillin resistant, 90% of strains, read-out: MIC90

SMILES | MIC [1] | MIC [2, 6] | MIC50 [2, 7] | MIC90 [2, 8] | MIC50 [3] | MIC ([3]; 25 clinical strains E. faecium) | MIC90 [3, 9] | MIC [4, 10] | MIC50 [4, 10] | MIC90 [4, 11] | MIC90 [2] | MIC90 [4] | MIC50 [2] | protective effects against infection ([5]; Experiment 3, in words) | ED50 ([5]; Staphylococcus aureus, IID803, 168 h, oral, 1 h after i.p. infection, mice, survival after one week, average of several tests, read-out: 50% effective dose (ED50)) | MIC90 [3]
CN1Cc2csc3c(C(=O)O)c(=O)c4cc(F)c(N5CCC(=O)CC5)c1c4n23 [Compound (G), 9,1-(Methylimino)methano-7-fluoro-8-(4-oxopiperidino)-5-oxo-5H-thiazolo[3,2-a]quinoline-4-carboxylic acid] | 0.013 µg/mL (≈ 0.0324 µM) | 0.025 to 1.56 µg/mL (≈ 0.0623 to 3.89 µM) | 0.05 µg/mL (≈ 0.125 µM) | 1.56 µg/mL (≈ 3.89 µM) | 0.39 µg/mL (≈ 0.972 µM) | 0.025 to 3.13 µg/mL (≈ 0.0623 to 7.8 µM) | 3.13 µg/mL (≈ 7.8 µM) | 0.006 to 0.39 µg/mL (≈ 0.0149 to 0.972 µM) | ≤ 0.006 µg/mL | 0.2 µg/mL (≈ 0.498 µM) |  |  |  |  |  | 
COC[C@H]1CN(c2c(F)cc3c(=O)c(C(=O)O)c4scc5n4c3c2N(C)C5)CCO1 [Compound (P), 9,1-(Methylimino)methano-7-fluoro-8-[(2R)-2-methoxymethylmorpholino)-5-oxo-5H-thiazolo[3,2-a]quinoline-4-carboxylic acid] | 0.05 µg/mL (≈ 0.115 µM) | 0.1 to 6.25 µg/mL (≈ 0.231 to 14.4 µM) | 0.2 µg/mL (≈ 0.461 µM) |  | 3.13 µg/mL (≈ 7.22 µM) | 0.2 to 12.5 µg/mL (≈ 0.461 to 28.8 µM) | 12.5 µg/mL (≈ 28.8 µM) | 0.006 to 0.78 µg/mL (≈ 0.0138 to 1.8 µM) | 0.013 µg/mL (≈ 0.03 µM) |  | 6.25 µg/mL (≈ 14.4 µM) | 0.78 µg/mL (≈ 1.8 µM) |  |  |  | 
COCC1CN(c2c(F)cc3c(=O)c(C(=O)O)c4scc5n4c3c2N(C)C5)CCN1C (stereo not drawn) [Compound (J), 9,1-(Methylimino)methano-7-fluoro-8-(3-methoxymethyl-4-methyl-1-piperazinyl)-5-oxo-5H-thiazolo[3,2-a]quinoline-4-carboxylic acid hydrochloride] | 0.2 µg/mL | 0.2 to 12.5 µg/mL |  | 12.5 µg/mL | 3.13 µg/mL | 0.39 to 25 µg/mL | 12.5 µg/mL | 0.05 to 6.25 µg/mL | 0.1 µg/mL | 3.13 µg/mL |  |  | 0.39 µg/mL | excellent protective effects against infection | 4.4 mg/kg | 
CN1Cc2csc3c(C(=O)O)c(=O)c4cc(F)c(N5CCC(O)CC5)c1c4n23 [Compound (L), 9,1-(Methylimino)methano-7-fluoro-8-(4-hydroxypiperidino)-5-oxo-5H-thiazolo[3,2-a]quinoline-4-carboxylic acid] | 0.013 µg/mL (≈ 0.0322 µM) | 0.05 to 1.56 µg/mL (≈ 0.124 to 3.87 µM) | 0.05 µg/mL (≈ 0.124 µM) | 1.56 µg/mL (≈ 3.87 µM) | 0.39 µg/mL (≈ 0.967 µM) | 0.05 to 6.25 µg/mL (≈ 0.124 to 15.5 µM) | 3.13 µg/mL (≈ 7.76 µM) | 0.006 to 0.39 µg/mL (≈ 0.0149 to 0.967 µM) | ≤ 0.006 µg/mL | 0.39 µg/mL (≈ 0.967 µM) |  |  |  |  |  | 
CN1Cc2csc3c(C(=O)O)c(=O)c4cc(F)c(N5CCC(N(C)C)CC5)c1c4n23 [Compound (H), 9,1-(methylimino)methano-7-fluoro-8-(4-dimethylaminopiperidino)-5-oxo-5H-thiazolo[3,2-a]quinoline-4-carboxylic acid] | 0.2 µg/mL (≈ 0.465 µM) | 0.2 to 6.25 µg/mL (≈ 0.465 to 14.5 µM) |  | 3.13 µg/mL (≈ 7.27 µM) | 1.56 µg/mL (≈ 3.62 µM) | 0.2 to 25 µg/mL (≈ 0.465 to 58.1 µM) | 12.5 µg/mL (≈ 29 µM) | 0.05 to 3.13 µg/mL (≈ 0.116 to 7.27 µM) | 0.1 µg/mL (≈ 0.232 µM) | 3.13 µg/mL (≈ 7.27 µM) |  |  | 0.39 µg/mL (≈ 0.906 µM) |  |  | 
CN1Cc2csc3c(C(=O)O)c(=O)c4cc(F)c(N5CCOC(CCl)C5)c1c4n23 (stereo not drawn) [Compound (D), 9,1-(Methylimino)methano-7-fluoro-8-(2-chloromethylmorpholino)-5-oxo-5H-thiazolo[3,2-a]quinoline-4-carboxylic acid] | 0.025 µg/mL (≈ 0.0571 µM) | 0.05 to 3.13 µg/mL (≈ 0.114 to 7.15 µM) | 0.2 µg/mL (≈ 0.457 µM) | 1.56 µg/mL (≈ 3.56 µM) | 0.39 µg/mL (≈ 0.891 µM) | 0.05 to 3.13 µg/mL (≈ 0.114 to 7.15 µM) | 3.13 µg/mL (≈ 7.15 µM) | 0.006 to 0.2 µg/mL (≈ 0.0137 to 0.457 µM) | 0.013 µg/mL (≈ 0.0297 µM) | 0.2 µg/mL (≈ 0.457 µM) |  |  |  |  |  | 
CN1Cc2csc3c(C(=O)O)c(=O)c4cc(F)c(N5CCO[C@@H](CO)C5)c1c4n23 [Compound (N), 9,1-(Methylimino)methano-7-fluoro-8-[(2R)-2-hydroxymethylmorpholino]-5-oxo-5H-thiazolo[3,2-a]quinoline-4-caboxylic acid] | 0.05 µg/mL (≈ 0.119 µM) | 0.05 to 3.13 µg/mL (≈ 0.119 to 7.46 µM) | 0.2 µg/mL (≈ 0.477 µM) | 3.13 µg/mL (≈ 7.46 µM) | 1.56 µg/mL (≈ 3.72 µM) | 0.1 to 25 µg/mL (≈ 0.238 to 59.6 µM) |  | 0.006 to 0.78 µg/mL (≈ 0.0143 to 1.86 µM) | 0.013 µg/mL (≈ 0.031 µM) |  |  | 0.78 µg/mL (≈ 1.86 µM) |  |  |  | 6.25 µg/mL (≈ 14.9 µM)
